Series [1] has as its system Hepatitis C virus. Description: Antiviral activity against Hepatitis C virus genotype 1a infected in W11.8 cells assessed as decrease in NS5A expression in replicon cell after 4 days by luminescence based ELISA. Conditions: subtype 1a, W11.8, 96 h. Type of series: functional, Hepacivirus hominis.
Series [2] deals with Hepatitis C virus. Description: Antiviral activity against Hepatitis C virus genotype 1b infected in human Huh-5.2 cells assessed as decrease in HCV replicon RNA replication after 4 days by luciferase assay. Type of series: functional, cell-based, Hepacivirus hominis. The note with it: Huh-5-2, 96 h. (In general: In antiviral work, replicon cells carry a viral genome segment that copies itself.)

Series [3] is described as follows: Clearance in iv dosed Sprague-Dawley rat. The note with it: in vivo. Type of series: ADME, organism-based.
Series [4] is described as follows: Half life in iv dosed Sprague-Dawley rat. The class given is ADME, organism-based. The note with it: in vivo.
Series [5] can be described thus: Cytotoxicity against human HuhET cells by [3H]thymidine incorporation assay. Type of series: cell-based. (In general: Incorporation of labelled thymidine or its analogues reports DNA synthesis.)
Series [6] can be described thus: Volume of distribution at steady state in iv dosed Sprague-Dawley rat. The class given is ADME, organism-based. Conditions: in vivo, read-out: Vdss.

For `COC(=O)N[C@H](C(=O)N1CCC[C@H]1c1nc2sc(C#CC#Cc3cc4[nH]c([C@@H]5CCCN5C(=O)[C@@H](NC(=O)OC)C(C)C)nc4s3)cc2[nH]1)C(C)C`, the EC50 was 281 nM in series [1] and 0.386 nM in series [2]. Further, the clearance in series [3] amounted to 8.2 mL/min/kg. The compound further showed a half-life in series [4] of 5.2 h. This compound also displayed a CC50 in series [5] of 6100 nM. In addition, in series [6], the Vd came to 3.3 L/kg.
In the case of `COC(=O)N[C@H](C(=O)N1C[C@@H](C)C[C@H]1c1nc2sc(C#CC#Cc3cc4[nH]c([C@@H]5C[C@H](C)CN5C(=O)[C@@H](NC(=O)OC)C(C)C)nc4s3)cc2[nH]1)C(C)C`, the values for the 50% effective concentration (EC50) in series [1] and in series [2] were 184 nM and 0.17 nM, respectively. Also, the cytotoxic concentration (CC50) in series [5] was over 20000 nM.
In the case of `COC(=O)N[C@H](C(=O)N1C[C@@H](C)C[C@H]1c1nc2sc(-c3ccc(-c4ccc(-c5cc6[nH]c([C@@H]7C[C@H](C)CN7C(=O)[C@@H](NC(=O)OC)C(C)C)nc6s5)cc4)cc3)cc2[nH]1)C(C)C`, the EC50 in series [1] turned out to be 6 nM; in series [2], 0.006 nM. The clearance in series [3] turned out to be 8 mL/min/kg. The compound further had a half-life in series [4] of 4.5 h. In series [5], this compound had a CC50 of over 20000 nM. Besides, in series [6], the Vd was found to be 2.2 L/kg.

In general, EC50 refers to the midpoint of the concentration-response curve. As usually defined, the clearance is the rate of elimination divided by the concentration. High values mean a high capacity for elimination, low ones a low capacity for elimination. Usually half-life stands for the time in which the quantity being followed falls by half. What is called CC50 is the concentration giving 50% cytotoxicity. The low end stands for harm at low concentration, the high end for better tolerance by the cells.

The record behind these values is ChEMBL document CHEMBL3392960, “Discovery of thienoimidazole-based HCV NS5A inhibitors. Part 1: C2-symmetric inhibitors with diyne and biphenyl linkers” (Bioorg Med Chem Lett, 2015).
